pKi: −log10 of the molar value.
Assays:
hCA XII = hCA XII (Homo sapiens, UniProt O43570); test: Stopped flow CO2 hydrase assay; settings: for Selectivity ratio I/XII: Ki hCA I / Ki hCA XII; for Selectivity ratio II/XII: Ki hCA II / Ki hCA XII
UO-31 = test: NCI-60 single-dose antiproliferative assay (SRB); format: cell-based, human; settings: UO-31, Renal cancer; for inhibition at 10 µM: Homo sapiens, UO-31, 10 μM single dose, read-out: Cell Growth inhibition Percent
Experimental: (§1) From the newly synthesized compounds, eleven compounds (4c, 4d, 5, 9a, 9b, 11a, 11b, 13b, 13c, 15b, and 15c) were selected by the National Cancer Institute (NCI) Developmental Therapeutics Program (DTP), Bethesda, Maryland, USA for the in vitro anti-proliferative activity evaluation. The selected compounds were examined at 10 μM dose against the NCI 60-cell line panel. This panel consists of nine cell line groups of leukemia, non-small cell lung carcinoma (NSCLC), melanoma, colon, CNS, ovarian, renal, prostate, and breast cancers. The results are reported as mean-graph of the percent growth relative to control and presented as percentage growth inhibition (GI%), furthermore, mean GI% of each compound over all panel cell lines was calculated (Table 1; Additional file 1; S3: In vitro biological activity).
(§2) From the newly synthesized compounds, eleven compounds were selected by the National Cancer Institute (NCI) Developmental Therapeutics Program (DTP), Bethesda, Maryland, USA for the in vitro anti-proliferative activity evaluation (For further details see supplementary materials).
(§3) NCI In-vitro Cancer Screening is a two-phase procedure that starts with the assessment of all compounds against the sixty NCI cell line panel depicting leukemia, NSCLC, CNS cancer, melanoma, prostate cancer, breast cancer, renal cancer, colon cancer and ovarian cancer cell lines at a single point of 10μM. The output from the single-dose screen is reportable as a mean graph.
(§4) The human tumor cell lines of the cancer screening panel were grown in RPMI 1640 medium containing 5% fetal bovine serum and 2 mM L-glutamine. For a typical screening experiment, cells were inoculated into 96 well microtiter plates in […] at plating densities ranging from 5000 to 40,000 cells/well depending on the doubling time of individual cell lines. After cell inoculation, the microtiter plates were incubated at 37 °C, 5% CO2, 95% air and 100% relative humidity for 24 h prior to addition of experimental drugs. After 24 h, two plates of each cell line were fixed in situ with trichloroacetic acid (TCA), to represent a measurement of the cell population for each cell line at the time of drug addition (Tz). Experimental drugs were solubilized in dimethyl sulfoxide at 400-fold the desired final maximum test concentration and stored frozen prior to use. At the time of drug addition, an aliquot of frozen concentrate was thawed and diluted to twice the desired final maximum test concentration with complete medium containing 50 µg/ml gentamicin. Aliquot of 100 µl of the drug dilution was added to the appropriate microtiter wells already containing 100 µl of medium, resulting in the required final drug concentration (10 µM). Triplicate wells were prepared for each individual dose. Following drug addition, the plates were incubated for an additional 48 h at 37 °C, 5% CO2, 95% air, and 100% relative humidity. For adherent cells, the assay was terminated by the addition of cold TCA. Cells were fixed in situ by the gentle addition of 50 µl of cold 50% (w/v) TCA (final concentration, 10% TCA) and incubated for 60 min at 4 °C. The supernatant was discarded, and the plates were washed five times with tap water and air dried. Sulforhodamine B (SRB) solution (100 µl) at 0.4% (w/v) in 1% acetic acid was added to each well, and plates were incubated for 10 min at room temperature. After staining, unbound dye was removed by washing five times with 1% acetic acid and the plates were air dried. Bound stain was subsequently solubilized with 10 mM trizma base, and the absorbance was read on an automated plate reader at a wavelength of 515 nm. For suspension cells, the methodology was the same except that the assay was terminated by fixing settled cells at the bottom of the wells by gently adding 50 µl of 80% TCA (final concentration, 16% TCA). […]

hCA II = hCA II (Homo sapiens, UniProt P00918); test: Stopped flow CO2 hydrase assay
HOP-62 = test: NCI-60 single-dose antiproliferative assay (SRB); format: cell-based; settings: Homo sapiens; 10 μM single dose; HOP-62, Non-small cell lung cancer; read-out: Cell Growth inhibition Percent
How it was run: (§5)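 A 48 h exposure to 10 µM compound, in triplicate wells, followed 24 h of cell attachment in RPMI 1640 with 5% FBS and 2 mM glutamine. TCA-fixed cells were stained with SRB and read at 515 nm to give percent growth relative to controls.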

NCI-H522 = test: NCI-60 single-dose antiproliferative assay (SRB); format: cell-based; settings: Homo sapiens; 10 μM single dose; NCI-H522, Non-small cell lung cancer; read-out: Cell Growth inhibition Percent
How it was run: as §5

U251 = test: NCI-60 single-dose antiproliferative assay (SRB); format: cell-based; settings: Homo sapiens, U-251; 10 μM single dose; U251, CNS cancer; read-out: Cell Growth inhibition Percent
How it was run: as §5

SK-OV-3 = test: NCI-60 single-dose antiproliferative assay (SRB); format: cell-based; settings: Homo sapiens; 10 μM single dose; SK-OV-3, Ovarian Cancer; read-out: Cell Growth inhibition Percent
How it was run: as §5

M14 = test: NCI-60 single-dose antiproliferative assay (SRB); format: cell-based; settings: Homo sapiens; 10 μM single dose; M14, Melanoma; read-out: Cell Growth inhibition Percent
How it was run: as §5

hCA IX = hCA IX (Homo sapiens, UniProt Q16790); test: Stopped flow CO2 hydrase assay; settings: for Selectivity ratio I/IX: Ki hCA I / Ki hCA IX; for Selectivity ratio II/IX: Ki hCA II / Ki hCA IX
NCI 60 cancer cell lines = test: NCI-60 single-dose antiproliferative assay, mean over panel; format: cell-based; settings: Homo sapiens; 10 μM single dose; mean over all NCI panel cell lines; read-out: MEAN % Growth inhibition
Experimental: as §1, §2, §3, §4

RXF 393 = test: NCI-60 single-dose antiproliferative assay (SRB); format: cell-based; settings: Homo sapiens; 10 μM single dose; RXF 393, Renal cancer; read-out: Cell Growth inhibition Percent
How it was run: as §5

SN12C = test: NCI-60 single-dose antiproliferative assay (SRB); format: cell-based; settings: Homo sapiens, 10 μM single dose, Renal cancer, read-out: Cell Growth inhibition Percent
How it was run: as §5

A549/ATCC = test: NCI-60 single-dose antiproliferative assay (SRB); format: cell-based; settings: Homo sapiens, 10 μM single dose, Non-small cell lung cancer, read-out: Cell Growth inhibition Percent
How it was run: as §5

SF-539 = test: NCI-60 single-dose antiproliferative assay (SRB); format: cell-based; settings: Homo sapiens; 10 μM single dose; SF-539, CNS cancer; read-out: Cell Growth inhibition Percent
How it was run: as §5

RPMI-8226 = test: NCI-60 single-dose antiproliferative assay (SRB); format: cell-based; settings: Homo sapiens; 10 μM single dose; RPMI-8226, Leukemia; read-out: Cell Growth inhibition Percent
How it was run: as §5

HCT-116 = test: NCI-60 single-dose antiproliferative assay (SRB); format: cell-based; settings: Homo sapiens; 10 μM single dose; HCT-116, Colon cancer; read-out: Cell Growth inhibition Percent
How it was run: as §5

SF-295 = test: NCI-60 single-dose antiproliferative assay (SRB); format: cell-based; settings: Homo sapiens; 10 μM single dose; SF-295, CNS cancer; read-out: Cell Growth inhibition Percent
How it was run: as §5

MDA-MB-435 = test: NCI-60 single-dose antiproliferative assay (SRB); format: cell-based; settings: Homo sapiens; 10 μM single dose; MDA-MB-435, Melanoma; read-out: Cell Growth inhibition Percent
How it was run: as §5

Sequence of hCA XII (O43570 25-354): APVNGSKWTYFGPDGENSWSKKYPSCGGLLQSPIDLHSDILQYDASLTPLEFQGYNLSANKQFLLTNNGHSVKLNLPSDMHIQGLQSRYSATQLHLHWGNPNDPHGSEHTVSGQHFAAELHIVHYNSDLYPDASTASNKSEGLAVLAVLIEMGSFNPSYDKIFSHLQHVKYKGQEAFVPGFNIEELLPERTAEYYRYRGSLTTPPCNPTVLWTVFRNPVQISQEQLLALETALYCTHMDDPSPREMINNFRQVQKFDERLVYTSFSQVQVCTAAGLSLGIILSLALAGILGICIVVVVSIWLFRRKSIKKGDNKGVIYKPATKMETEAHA

SMILES	pKi (hCA XII)	Selectivity ratio I/XII (hCA XII)	Selectivity ratio II/XII (hCA XII)	inhibition at 10 µM (UO-31)	pKi (hCA II)	inhibition at 10 µM (HOP-62)	inhibition at 10 µM (NCI-H522)	inhibition at 10 µM (U251)	inhibition at 10 µM (SK-OV-3)	inhibition at 10 µM (M14)	pKi (hCA IX)	Selectivity ratio I/IX (hCA IX)	Selectivity ratio II/IX (hCA IX)	inhibition at 10 µM (NCI 60 cancer cell lines)	inhibition at 10 µM (RXF 393)	inhibition at 10 µM (SN12C)	inhibition at 10 µM (A549/ATCC)	inhibition at 10 µM (SF-539)	inhibition at 10 µM (RPMI-8226)	inhibition at 10 µM (MDA-MB-435)	other results
NS(=O)(=O)N/C=C1/C(=O)Nc2ccccc21 [Compound 5, 3-(sulfamidmethylene)indoline-2-one]	7.37	149.65	21.54	34.6%	6.04	9.49%	5.36%	2.06%	5.43%	2.01%	6.68	30.48	4.39	–	–	–	–	–	–	–	–
O=C1Nc2ccccc2C1=CNc1ccc(C(=O)O)cc1 [Compound 4c, 4-{[(2-Oxoindolin-3-ylidene)methyl]amino}benzoic acid]	< 5.00	–	–	49.7%	5.06	32%	–	–	–	2.15%	< 5.00	–	–	3.71%	29.6%	24.8%	9.11%	2.79%	–	–	–
O=C1Nc2ccccc2C1=CNc1ccc(CNc2ccc(S(=O)(=O)Nc3ncccn3)cc2)cc1 [Compound 11b, 4-{[4-({[2-Oxoindolin-3-ylidene]methyl}amino)benzyl]amino}-N-(pyrimidin-2-yl)benzenesulfonamide]	5.07	1.06	0.31	39.3%	5.58	11.3%	6.92%	14.4%	–	0.4%	5.10	1.16	0.34	7.38%	–	–	–	–	28.9%	32%	Cell Growth inhibition Percent (UO-31; 10 μM single dose): 39.47%; inhibition at 10 µM (HCT-116): 13.4%; inhibition at 10 µM (SF-295): 0.84%
NS(=O)(=O)c1ccc(NCc2ccc(NC=C3C(=O)Nc4ccccc43)cc2)cc1 [Compound 11a, 4-{[4-({[2-Oxoindolin-3-ylidene]methyl}amino)benzyl]amino}benzenesulfonamide]	7.10	4.08	9.50	44%	6.13	30.5%	–	–	–	–	6.66	1.48	3.43	2.58%	26.2%	22.9%	4.86%	–	–	2.04%	–
NS(=O)(=O)c1nnc(NC=C2C(=O)Nc3ccccc32)s1 [Compound 4d, 5-{[(2-Oxoindolin-3-ylidene)methyl]amino}-1,3,4-thiadiazole-2-sulfonamide]	8.06	0.966	0.448	27.5%	8.41	13.4%	0.13%	0.06%	0.47%	6.04%	7.07	0.100	0.046	–	–	–	–	3.69%	–	–	inhibition at 10 µM (SF-295): 0.84%
O=C1Nc2ccccc2C1=CNc1ccc(C(=O)Nc2ccc(S(=O)(=O)Nc3ncccn3)cc2)cc1 [Compound 9b, 4-{[(2-Oxoindolin-3-ylidene)methyl]amino}-N-{4-[N-(pyrimidin-2-yl)sulfamoyl]phenyl}benzamide]	< 5.00	–	–	43.7%	< 5.00	27.7%	–	–	–	1.44%	< 5.00	–	–	2.55%	–	20.5%	–	5.04%	–	–	–
O=C(Nc1ccc(NC=C2C(=O)Nc3ccccc32)cc1)Nc1nccs1 [Compound 15c, 1-{4-[((2-Oxoindolin-3-ylidene)methyl)amino]phenyl}-3-(thiazol-2-yl)urea]	< 5.00	–	–	51.6%	< 5.00	62.7%	–	58%	45%	81.5%	< 5.00	–	–	61.8%	120%	32%	43.4%	66.4%	16.4%	153%	inhibition at 10 µM (HCT-116): 73%; inhibition at 10 µM (SF-295): 29.4%
O=C1Nc2ccccc2C1=CNc1ccc(C(=O)C=CNc2nccs2)cc1 [Compound 13c, 3-{[(4-{3-[Thiazol-2-ylamino]acryloyl}phenyl)amino]methylene}indolin-2-one]	< 5.00	–	–	16.2%	< 5.00	12%	2.31%	–	3.75%	–	< 5.00	–	–	3.28%	–	11.6%	21.6%	1.96%	35%	1.15%	inhibition at 10 µM (HCT-116): 21.9%
